Reference: patent EP4678638A1, “NEW E3 UBIQUITIN LIGASE LIGAND, PROTEIN DEGRADATION AGENT AND USE THEREOF” (priority 2023, dated 2024)

Tests used:
RSK1 = target: T1, RSK1 (Homo sapiens, UniProt Q15418); test: Western blot degradation of RSK1 (hPBMC); format: cell-based; conditions: Table D8
T1 construct: evaluate the effects of the compounds of the present disclosure on the expression of target proteins in cells; endogenous in cells; host or cells: hPBMC
Experimental: (§1) Conventional Western blot assay was performed to evaluate the effects of the compounds of the present disclosure on the expression of target proteins in cells.
(§2) (1) Cell Seeding and Protein Harvesting: The selected cells were processed according to the cell seeding procedure and protein harvesting procedure in Table III-2. Table III-2 Cell Seeding and Protein Harvesting Procedures
(§3) (2) To the collected supernatant, 5X SDS sample loading buffer was added, followed by denaturation at 95°C for 5 minutes. The denatured samples were then separated by SDS-PAGE electrophoresis on a polyacrylamide gel. Proteins were transferred to a nitrocellulose membrane (0.45 µm NC membrane), blocked with blocking buffer at room temperature for 1 hour, and subjected to antibody incubation and development procedures according to the antibody manufacturer's instructions (Cell Signaling Technology).
(§4) Half-Maximal Degradation Concentration value (the drug concentration required for degrading proteins by 50%, abbreviated as DC50) reads method: comparing the grayscale values of Western blot bands from drug-treated samples with those from blank DMSO-treated controls, and identifying the drug concentration range at which the grayscale value is half that of the DMSO-treated control bands.
(§5) DC50 values can be calculated using ImageJ software to measure grayscale values of Western blot bands from drug-treated samples. The concentration-response curve is fitted to estimate the drug concentration corresponding to half the grayscale value.
(§6) Target protein remaining (%) refers to the percentage of target protein remaining in hPBMC cells after treatment with protein degrader compounds.
(§7) Calculation method for target protein remaining (%): Use ImageJ software to measure grayscale values of Western blot bands from drug (protein degrader)-treated samples. The grayscale value of drug-treated bands is divided by that of internal control protein bands, and the resulting quotient is normalized to obtain the relative percentage of remaining target protein after protein degrader treatment.
(§8) Target protein degradation rate (%) = 100% - target protein remaining (%).

RSK2 = target: T2, RSK2 (Homo sapiens, UniProt P51812); test: Western blot degradation of RSK2 (hPBMC); format: cell-based; conditions: Table D8
T2 construct: evaluate the effects of the compounds of the present disclosure on the expression of target proteins in cells; endogenous in cells; host or cells: hPBMC
Experimental: as §1, §2, §3, §4, §5, §6, §7, §8

T1 sequence (Q15418 whole entry): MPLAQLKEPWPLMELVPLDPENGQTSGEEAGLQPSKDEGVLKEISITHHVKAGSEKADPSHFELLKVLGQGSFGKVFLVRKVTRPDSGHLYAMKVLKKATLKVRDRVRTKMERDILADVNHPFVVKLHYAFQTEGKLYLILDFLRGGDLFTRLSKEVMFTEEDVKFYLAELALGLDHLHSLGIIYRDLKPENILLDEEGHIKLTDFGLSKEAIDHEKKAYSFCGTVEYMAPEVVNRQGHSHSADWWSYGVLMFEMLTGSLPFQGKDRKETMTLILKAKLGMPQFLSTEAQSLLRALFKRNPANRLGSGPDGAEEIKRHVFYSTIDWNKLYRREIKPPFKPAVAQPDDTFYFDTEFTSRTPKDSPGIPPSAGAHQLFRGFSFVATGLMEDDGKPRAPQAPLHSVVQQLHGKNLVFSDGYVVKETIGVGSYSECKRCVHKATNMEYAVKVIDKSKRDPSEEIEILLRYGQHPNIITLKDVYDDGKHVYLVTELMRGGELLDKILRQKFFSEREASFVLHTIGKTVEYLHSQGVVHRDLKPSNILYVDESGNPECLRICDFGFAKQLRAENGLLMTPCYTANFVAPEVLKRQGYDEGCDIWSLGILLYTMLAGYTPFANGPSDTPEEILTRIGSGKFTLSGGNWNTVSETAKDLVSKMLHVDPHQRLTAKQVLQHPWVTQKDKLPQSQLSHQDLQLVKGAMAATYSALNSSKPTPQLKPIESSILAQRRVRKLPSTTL
T2 sequence (P51812 whole entry): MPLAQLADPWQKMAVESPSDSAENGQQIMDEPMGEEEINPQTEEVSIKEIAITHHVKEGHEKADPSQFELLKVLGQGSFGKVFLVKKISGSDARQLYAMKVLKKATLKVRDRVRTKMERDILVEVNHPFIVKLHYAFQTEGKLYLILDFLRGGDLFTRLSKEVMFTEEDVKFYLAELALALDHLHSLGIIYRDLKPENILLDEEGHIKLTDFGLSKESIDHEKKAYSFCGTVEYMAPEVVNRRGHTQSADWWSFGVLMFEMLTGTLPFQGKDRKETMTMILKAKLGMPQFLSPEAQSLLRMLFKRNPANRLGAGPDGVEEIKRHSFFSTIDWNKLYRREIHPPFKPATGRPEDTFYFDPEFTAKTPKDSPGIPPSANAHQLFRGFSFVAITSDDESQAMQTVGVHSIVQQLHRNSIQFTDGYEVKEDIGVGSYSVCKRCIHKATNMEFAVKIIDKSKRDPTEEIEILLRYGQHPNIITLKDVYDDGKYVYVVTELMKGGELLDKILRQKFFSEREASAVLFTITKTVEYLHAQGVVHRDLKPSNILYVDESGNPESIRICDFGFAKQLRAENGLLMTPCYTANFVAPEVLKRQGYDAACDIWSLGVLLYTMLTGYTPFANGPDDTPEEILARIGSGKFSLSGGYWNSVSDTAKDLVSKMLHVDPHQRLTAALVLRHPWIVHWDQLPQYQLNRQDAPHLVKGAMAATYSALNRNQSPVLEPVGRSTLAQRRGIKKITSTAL

Row | Structure (SMILES) | Degradation of substrate protein RSK1 (substrate protein remaining %) (RSK1) | Degradation of substrate protein RSK2 (substrate protein remaining %) (RSK2)
1 | C[C@@H]1CNC(=O)c2cc3ccc(C(=O)Nc4cnn(Cc5ccc(N6CCC(N(C)Cc7ccc(N8CCC(=O)NC8=O)cc7)CC6)cc5)c4)nc3n21 [GT-07938, (R)-N-(1-(4-(4-((4-(2,4-dioxotetrahydropyrimidin-1(2H)-yl)benzyl)(methyl)amino)piperidin-1-yl)benzyl)-1H-pyrazol-4-yl)-9-methyl-6-oxo-6,7,8,9-tetrahydropyrido[3',2':4,5]py rrolo[1,2-a]pyrazine-2-carboxamide] | A (A is defined as 0% ≤ substrate protein remaining % ≤ 80%) | B (B is defined as substrate protein remaining % > 80%)
2 | C[C@@H]1CNC(=O)c2cc3ccc(C(=O)Nc4cnn(Cc5ccc(N6CCC(N(C)Cc7cccc(N8CCC(=O)NC8=O)c7)CC6)cc5)c4)nc3n21 [GT-07939, (R)-N-(1-(4-(4-((3-(2,4-dioxotetrahydropyrimidin-1(2H)-yl)benzyl)(methyl)amino)piperidin-1-yl)benzyl)-1H-pyrazol-4-yl)-9-methyl-6-oxo-6,7,8,9-tetrahydropyrido[3',2':4,5]py rrolo[1,2-a]pyrazine-2-carboxamide] | A (A is defined as 0% ≤ substrate protein remaining % ≤ 80%) | B (B is defined as substrate protein remaining % > 80%)
3 | C[C@@H]1CNC(=O)c2cc3ccc(C(=O)Nc4cnn(Cc5ccc(N6CCC(N(C)Cc7ccc(N8CCC(=O)NC8=O)cn7)CC6)cc5)c4)nc3n21 [GT-07940, (R)-N-(1-(4-(4-(((5-(2,4-dioxotetrahydropyrimidin-1(2H)-yl)pyridin-2-yl)methyl)(methyl)amino)piperidin-1-yl)benzyl)-1H-pyrazol-4-yl)-9-methyl-6-oxo-6,7,8,9-tetrahydropyrido[3',2':4,5]py rrolo[1,2-a]pyrazine-2-carboxamide] | A (A is defined as 0% ≤ substrate protein remaining % ≤ 80%) | A (A is defined as 0% ≤ substrate protein remaining % ≤ 80%)
4 | C[C@@H]1CNCc2cc3ccc(C(=O)Nc4cnn(Cc5ccc(N6CCC(N(C)Cc7ccc(N8CCC(=O)NC8=O)nc7)CC6)cc5)c4)nc3n21 [GT-07941, (R)-N-(1-(4-(4-(((6-(2,4-dioxotetrahydropyrimidin-1(2H)-yl)pyridin-3-yl)methyl)(methyl)amino)piperidin-1-yl)benzyl)-1H-pyrazol-4-yl)-9-methyl-6,7,8,9-tetrahydropyrido[3',2':4,5]py rrolo[1,2-a]pyrazine-2-carboxamide] | A (A is defined as 0% ≤ substrate protein remaining % ≤ 80%) | A (A is defined as 0% ≤ substrate protein remaining % ≤ 80%)
5 | C[C@@H]1CNC(=O)c2cc3ccc(C(=O)Nc4cnn(Cc5ccc(N6CCC(N(C)Cc7cccc(NC8CCC(=O)NC8=O)c7)CC6)cc5)c4)nc3n21 (stereo partly drawn) [GT-07942, (9R)-N-(1-(4-(4-((3-((2,6-dioxopiperidin-3-yl)amino)benzyl)(methyl)amino)piperidin-1-yl)benzyl)-1H-pyrazol-4-yl)-9-methyl-6-oxo-6,7,8,9-tetrahydropyrido[3',2':4,5]py rrolo[1,2-a]pyrazine-2-carboxamide] | A (A is defined as 0% ≤ substrate protein remaining % ≤ 80%) | A (A is defined as 0% ≤ substrate protein remaining % ≤ 80%)
6 | C[C@@H]1CNC(=O)c2cc3ccc(C(=O)Nc4cnn(Cc5ccc(N6CCC(N(C)Cc7cc(N8CCC(=O)NC8=O)ncc7F)CC6)cc5)c4)nc3n21 [GT-07943, (R)-N-(1-(4-(4-(((2-(2,4-dioxotetrahydropyrimidin-1(2H)-yl)-5-fluoropyridin-4-yl)methyl)(methyl)amino)piperidin-1-yl)benzyl)-1H-pyrazol-4-yl)-9-methyl-6-oxo-6,7,8,9-tetrahydropyrido[3',2':4,5]py rrolo[1,2-a]pyrazine-2-carboxamide] | A (A is defined as 0% ≤ substrate protein remaining % ≤ 80%) | A (A is defined as 0% ≤ substrate protein remaining % ≤ 80%)
7 | C[C@@H]1CNC(=O)c2cc3ccc(C(=O)Nc4cnn(Cc5ccc(N6CCC(N(C)Cc7ccnc(N8CCC(=O)NC8=O)c7)CC6)cc5)c4)nc3n21 [GT-07944, (R)-N-(1-(4-(4-(((2-(2,4-dioxotetrahydropyrimidin-1(2H)-yl)pyridin-4-yl)methyl)(methyl)amino)piperidin-1-yl)benzyl)-1H-pyrazol-4-yl)-9-methyl-6-oxo-6,7,8,9-tetrahydropyrido[3',2':4,5]py rrolo[1,2-a]pyrazine-2-carboxamide] | A (A is defined as 0% ≤ substrate protein remaining % ≤ 80%) | A (A is defined as 0% ≤ substrate protein remaining % ≤ 80%)
8 | C[C@@H]1CNC(=O)c2cc3ccc(C(=O)Nc4cnn(Cc5ccc(N6CCC(N(C)Cc7cncc(N8CCC(=O)NC8=O)c7)CC6)cc5)c4)nc3n21 [GT-07945, (R)-N-(1-(4-(4-(((5-(2,4-dioxotetrahydropyrimidin-1(2H)-yl)pyridin-3-yl)methyl)(methyl)amino)piperidin-1-yl)benzyl)-1H-pyrazol-4-yl)-9-methyl-6-oxo-6,7,8,9-tetrahydropyrido[3',2':4,5]py rrolo[1,2-a]pyrazine-2-carboxamide] | A (A is defined as 0% ≤ substrate protein remaining % ≤ 80%) | A (A is defined as 0% ≤ substrate protein remaining % ≤ 80%)
9 | C[C@@H]1CNC(=O)c2cc3ccc(C(=O)Nc4cnn(Cc5ccc(N6CCC(N(C)Cc7ccnc(C8CCC(=O)NC8=O)c7)CC6)cc5)c4)nc3n21 (stereo partly drawn) [GT-07947, (9R)-N-(1-(4-(4-(((2-(2,6-dioxopiperidin-3-yl)pyridin-4-yl)methyl)(methyl)amino)piperidin-1-yl)benzyl)-1H-pyrazol-4-yl)-9-methyl-6-oxo-6,7,8,9-tetrahydropyrido[3',2':4,5]py rrolo[1,2-a]pyrazine-2-carboxamide] | A (A is defined as 0% ≤ substrate protein remaining % ≤ 80%) | A (A is defined as 0% ≤ substrate protein remaining % ≤ 80%)
10 | C[C@@H]1CNC(=O)c2cc3ccc(C(=O)Nc4cnn(Cc5ccc(N6CCC(N(C)Cc7cncc(C8CCC(=O)NC8=O)c7)CC6)cc5)c4)nc3n21 (stereo partly drawn) [GT-07948, (9R)-N-(1-(4-(4-(((5-(2,6-dioxopiperidin-3-yl)pyridin-3-yl)methyl)(methyl)amino)piperidin-1-yl)benzyl)-1H-pyrazol-4-yl)-9-methyl-6-oxo-6,7,8,9-tetrahydropyrido[3',2':4,5]py rrolo[1,2-a]pyrazine-2-carboxamide] | A (A is defined as 0% ≤ substrate protein remaining % ≤ 80%) | A (A is defined as 0% ≤ substrate protein remaining % ≤ 80%)
11 | C[C@@H]1CNC(=O)c2cc3ccc(C(=O)Nc4cnn(Cc5ccc(N6CCC(N(C)Cc7cc(N8CCC(=O)NC8=O)cnc7F)CC6)cc5)c4)nc3n21 [GT-07949, (R)-N-(1-(4-(4-(((5-(2,4-dioxotetrahydropyrimidin-1(2H)-yl)-2-fluoropyridin-3-yl)methyl)(methyl)amino)piperidin-1-yl)benzyl)-1H-pyrazol-4-yl)-9-methyl-6-oxo-6,7,8,9-tetrahydropyrido[3',2':4,5]py rrolo[1,2-a]pyrazine-2-carboxamide] | A (A is defined as 0% ≤ substrate protein remaining % ≤ 80%) | A (A is defined as 0% ≤ substrate protein remaining % ≤ 80%)
12 | C[C@@H]1CNC(=O)c2cc3ccc(C(=O)Nc4cnn(Cc5ccc(N6CCC(N(C)Cc7cnc(N8CCC(=O)NC8=O)cn7)CC6)cc5)c4)nc3n21 [GT-07950, (R)-N-(1-(4-(4-(((5-(2,4-dioxotetrahydropyrimidin-1(2H)-yl)pyrazin-2-yl)methyl)(methyl)amino)piperidin-1-yl)benzyl)-1H-pyrazol-4-yl)-9-methyl-6-oxo-6,7,8,9-tetrahydropyrido[3',2':4,5]py rrolo[1,2-a]pyrazine-2-carboxamide] | A (A is defined as 0% ≤ substrate protein remaining % ≤ 80%) | A (A is defined as 0% ≤ substrate protein remaining % ≤ 80%)
